Source: patent US11440932B2, “Surfactant compounds-clips for extraction and stabilization in solution of membrane proteins” (CENTRE NATIONAL DE LA RECHERCHE SCIENTIFIQUE, priority 2017, dated 2022)
Non-standard residues stand in square brackets, D forms with d. Residues, ends and D or L forms follow the SMILES beside them. ξ: configuration not given here. *: point of attachment. Myristoyl = CCCCCCCCCCCCCC(=O)*; Lauroyl = CCCCCCCCCCCC(=O)*; Decanoyl = CCCCCCCCCC(=O)*; ξE = NC(CCC(=O)O)C(=O)O; ξD = NC(CC(=O)O)C(=O)O

Tests used:
BmrA = target: T1, BmrA (Bacillus subtilis, UniProt O06967); assay: Extraction of BmrA from membranes (SDS-PAGE of supernatant); design: species or system bacterial; overexpressed in E. coli C41DE3; conditions: detergent 10 g/l unless indicated otherwise; 2 h at 4° C.
T1 construct: His tag; made in house; host or cells: E. coli C41(DE3)
Description: (§1) FIG. 6 depicts the extraction of the membrane proteins BmrA (panels A and C) and AcrB (panels B and D) using commercial detergents and the molecules of the invention (panels A and B, from left to right): SDS, DDM, FC12, TX100, compounds of the invention 1.4, 1.5, 2.3a, 2.3b, 2.3c, 2.3d, 2.3e, 2.3f, 2.3g, 2.3h, 2.3i, 3.7a, 3.7b; panel C: compounds of the invention 3.7c 0.8%, 3.7d 0.16%, 3.7e 0.8%, 3.7f 0.3%, 3.7g 0.4%, 3.7h 0.2%, 3.7i 0.07%, 3.7j 0.09%, 3.7k, 3.7l, 0.25%, 3.9a, 4.5a, 4.5b, 4.5c, 4.5d 0.34%, 4.6a, 4.6b, 4.6c, 4.6d, 5.3a, 5.3b, 5.3c 0.3%, 5.3d 0.3%; panel D: 3.7c, 3.7d, 3.7e, 3.7f, 3.7h, 3.7i 0.1%, 3.7j, 3.7k, 3.7l, 3.9a, 4.5a, 4.5b, 4.5c, 4.5d, 4.6a, 4.6b, 4.6c, 4.6d. The detergents are added at 10 g/l (1%), unless indicated otherwise. The equivalent of 20 μg of proteins of the extracted fraction after centrifugation at 100 000×g for 30 min is deposited on 10% SDS-PAGE, stained with Coomassie blue after migration. BmrA migrates in its monomeric form to the level of the 55 kDa band; AcrB migrates in its monomeric form to the level of the 100 kDa band. SDS=sodium dodecyl sulfate; DDM=β-D-dodecyl maltoside; FC12=foscholine-12; TX100=triton X-100.
(§2) The extraction capacity of the detergents of the series is tested on membranes in which BmrA or AcrB are strongly expressed. The extraction with the clips (molecules of the invention) is compared to that obtained with commercial detergents, used as reference.
(§3) Procedure. BmrA represents 25% of the proteins present in the overexpression system used (E. coli, C41DE3). These membranes are prepared as described previously (Matar-Merheb, R. et al. ([11])). The membranes containing AcrB (approximately 20% of the membrane proteins, same expression system as BmrA) were prepared as described previously (Seeger, M. A. et al. ([21])). The detergents are used at 10 g/l unless indicated otherwise, and the proteins diluted at 2 g/l in a 20 mM Tris-HCl buffer, pH 8.0, 100 mM NaCl, 15% glycerol, with protease inhibitors (Roche) added thereto at an amount of one tablet/100 ml. The mixture (T) is incubated for 2 h at 4° C. then centrifuged for 1 h at 4° C. at 100 000×g in order to separate the extracted fraction (supernatant, S) from that which is not extracted (pellet). The supernatants are deposited on 10% SDS-PAGE and stained with Coomassie blue after migration. The foscholine 12, DDM and LMNG originate from Anatrace, the SDS and Triton X100 originate from Sigma-Aldrich.

AcrB = target: T2, AcrB (Escherichia coli, UniProt P31224); assay: Extraction of AcrB from membranes (SDS-PAGE of supernatant); design: species or system bacterial; same expression system (E. coli C41DE3); conditions: for selective extraction AcrB versus BmrA: comparison of extraction of AcrB and BmrA; for extraction of AcrB: detergent 10 g/l unless indicated otherwise, 2 h at 4° C.
T2 construct: made in house; host or cells: E. coli C41(DE3)
Description: as §1, §2, §3

[1] = Critical micelle concentration (CMC) by DPH fluorescence; format: physicochemical; conditions: 50 mM tris-HCl, pH 8.0
Description: FIG. 4 represents the fluorescence (%) of DPH (1,6-diphenyl-1,3,5-hexatriene) in the presence of increasing concentrations (0.0001 mM, 0.001 mM, 0.01 mM, 0.1 mM, 1 mM and 10 mM) of clips (compounds of the invention), exemplified with the compounds #3.7e (C13, points represented by squares) and 3.7f (C18, points represented by circles). The experiment is carried out in triplicates. In accordance with Chattopadhyay, A. & London, E ([22]), the CMC corresponds to the concentration at which the breakage in the slope is observed, here at 20 μM for 3.7f and 2 mM for 3.7e (black symbols).
Procedure. The molecules of the invention were prepared in a range of concentrations extending from 0.1 μM to 10 mM in 50 mM tris-HCl, pH 8.0 and neutralized at this pH. To 80 μl of each solution (triplicate), the same volume of 10 μM of 1,6-diphenyl-1,3,5-hexatriene (DPH, Sigma, D208000) is added, prepared at 100 μM in tetrahydrofuran then diluted 10-fold in H2O. The increase in the fluorescence of the DPH occurs when the latter find micelles of clips into which it can insert itself (Chattopadhyay, A. & London, E. Fluorimetric determination of critical micelle concentration avoiding interference from detergent charge. Anal Biochem 139, 408-412 (1984) ([22])). The fluorescence is read with a Xenius SAFAS fluorimeter by exciting at 358 nm and recording the fluorescence emission at 430 nm, with slits of 9 to 10 nm for the excitation and the emission and a gain of 100 to 150, depending on the cases.
Results. The CMC of the detergents is the concentration starting from which they associate with one another to form micelles, in which, in aqueous solution, the hydrophobic portions are grouped together at the center and the hydrophilic regions are exposed to the solvent. […] A typical result obtained with a compound 3.7 provided with a C13 (3.7e) or C18 ([…]) aliphatic chain is illustrated in FIG. 4.

T1 sequence (O06967 whole entry): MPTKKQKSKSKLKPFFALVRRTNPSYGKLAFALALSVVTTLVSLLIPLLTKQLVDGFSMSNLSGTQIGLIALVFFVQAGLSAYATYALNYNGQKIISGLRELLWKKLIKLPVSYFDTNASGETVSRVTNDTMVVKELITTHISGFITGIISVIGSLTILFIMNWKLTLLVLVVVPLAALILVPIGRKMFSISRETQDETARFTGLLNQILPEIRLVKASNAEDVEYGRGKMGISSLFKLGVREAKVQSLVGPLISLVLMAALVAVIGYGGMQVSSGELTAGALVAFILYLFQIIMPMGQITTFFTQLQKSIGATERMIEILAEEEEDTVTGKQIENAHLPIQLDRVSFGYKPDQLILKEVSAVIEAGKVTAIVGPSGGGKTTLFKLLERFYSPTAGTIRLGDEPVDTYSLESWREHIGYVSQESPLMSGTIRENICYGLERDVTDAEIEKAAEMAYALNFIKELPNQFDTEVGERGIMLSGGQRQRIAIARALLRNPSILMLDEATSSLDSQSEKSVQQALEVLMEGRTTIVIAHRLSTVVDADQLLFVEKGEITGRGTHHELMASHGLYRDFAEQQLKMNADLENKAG
T2 sequence (P31224 whole entry): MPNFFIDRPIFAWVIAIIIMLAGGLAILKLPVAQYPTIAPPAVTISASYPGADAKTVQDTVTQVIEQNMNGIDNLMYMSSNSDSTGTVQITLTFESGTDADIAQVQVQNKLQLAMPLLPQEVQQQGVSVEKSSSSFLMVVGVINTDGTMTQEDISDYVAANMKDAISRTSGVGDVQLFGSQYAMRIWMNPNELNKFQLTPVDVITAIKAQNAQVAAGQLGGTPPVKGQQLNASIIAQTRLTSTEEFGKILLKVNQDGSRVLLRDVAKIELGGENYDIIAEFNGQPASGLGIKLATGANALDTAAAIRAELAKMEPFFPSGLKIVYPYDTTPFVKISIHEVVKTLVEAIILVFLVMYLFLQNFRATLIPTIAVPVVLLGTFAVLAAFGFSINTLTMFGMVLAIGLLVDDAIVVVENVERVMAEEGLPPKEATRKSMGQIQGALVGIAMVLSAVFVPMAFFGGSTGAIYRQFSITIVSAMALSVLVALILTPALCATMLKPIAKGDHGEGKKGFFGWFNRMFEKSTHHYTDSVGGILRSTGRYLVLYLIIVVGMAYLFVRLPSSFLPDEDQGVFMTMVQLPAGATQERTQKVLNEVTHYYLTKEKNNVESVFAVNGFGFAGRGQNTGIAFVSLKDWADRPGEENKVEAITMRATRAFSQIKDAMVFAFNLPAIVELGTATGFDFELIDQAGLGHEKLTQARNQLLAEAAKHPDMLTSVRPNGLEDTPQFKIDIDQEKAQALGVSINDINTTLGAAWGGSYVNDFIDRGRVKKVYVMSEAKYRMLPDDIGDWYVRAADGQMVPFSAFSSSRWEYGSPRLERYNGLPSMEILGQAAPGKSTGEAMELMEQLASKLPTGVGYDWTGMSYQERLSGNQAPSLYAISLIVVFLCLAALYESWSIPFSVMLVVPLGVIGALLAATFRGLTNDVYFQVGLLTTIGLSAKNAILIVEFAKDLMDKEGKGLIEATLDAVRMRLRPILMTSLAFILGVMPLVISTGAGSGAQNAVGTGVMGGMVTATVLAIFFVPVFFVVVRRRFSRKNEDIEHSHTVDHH

Compound | extraction of BmrA (BmrA) | selective extraction AcrB versus BmrA (AcrB) | extraction of AcrB (AcrB) | CMC [1]
CCCNC(=O)[C@H](CO)NCC(=O)O [Compound 1.4] | extracting |  |  | 
CCCNC(=O)[C@H](CO)N(CC(=O)O)CC(=O)O [Compound 1.5] | partially extracting | more effectively extract AcrB | extracting | 2.5 mM
CCCCCCCCCCCCCC(=O)N[C@@H](CO)C(=O)N[C@H](CCC(=O)O)C(=O)O [Compound 2.3a] (HELM PEPTIDE1{[CCCCCCCCCCCCCC(=O)[*:2]].S.[dE]}$$$$V2.0) | extracting |  | extracting | 2 mM
CCCCCCCC(=O)N[C@@H](CO)C(=O)N[C@H](CCC(=O)O)C(=O)O [Compound 2.3b] (HELM PEPTIDE1{[CCCCCCCC(=O)[*:2]].S.[dE]}$$$$V2.0) | non-extracting |  | extracting | 5 mM
CCCCCCCCC(=O)N[C@@H](CO)C(=O)N[C@H](CCC(=O)O)C(=O)O [Compound 2.3c] (HELM PEPTIDE1{[CCCCCCCCC(=O)[*:2]].S.[dE]}$$$$V2.0) | non-extracting |  | extracting | 3.5 mM
CCCCCCCCCC(=O)N[C@@H](CO)C(=O)N[C@H](CCC(=O)O)C(=O)O [Compound 2.3d] (HELM PEPTIDE1{[CCCCCCCCCC(=O)[*:2]].S.[dE]}$$$$V2.0) | extracting |  | extracting | 2 mM
CCCCCCCCCCCC(=O)N[C@@H](CO)C(=O)N[C@H](CCC(=O)O)C(=O)O [Compound 2.3e] (HELM PEPTIDE1{[CCCCCCCCCCCC(=O)[*:2]].S.[dE]}$$$$V2.0) |  |  | extracting | 1 mM
CCCCCCCCCCCCC(=O)N[C@@H](CO)C(=O)N[C@H](CCC(=O)O)C(=O)O [Compound 2.3f] | extracting |  | extracting | 0.8 mM
CCCCCCCCCCCCCC(=O)N[C@@H](CO)C(=O)N[C@H](CCC(=O)O)C(=O)O [Compound 2.3g] (HELM PEPTIDE1{[CCCCCCCCCCCCCC(=O)[*:2]].S.[dE]}$$$$V2.0) | extracting |  | extracting | 
CCCCCCCCCCCCCCCC(=O)N[C@@H](CO)C(=O)N[C@H](CCC(=O)O)C(=O)O [Compound 2.3h] (HELM PEPTIDE1{[CCCCCCCCCCCCCCCC(=O)[*:2]].S.[dE]}$$$$V2.0) | extracting |  | extracting | 0.5 mM
[2H]C([2H])([2H])C([2H])([2H])C([2H])([2H])C([2H])([2H])C([2H])([2H])C([2H])([2H])C([2H])([2H])C([2H])([2H])C([2H])([2H])C([2H])([2H])C([2H])([2H])C(=O)N[C@@H](CO)C(=O)N[C@H](CCC(=O)O)C(=O)O [Compound 2.3i] | extracting |  | extracting | 
CCCCCCCCCC(=O)N[C@@H](COCc1cn(CCO[C@@H]2OC(CO)[C@@H](O)C(O)C2O)nn1)C(=O)N[C@H](CCC(=O)O)C(=O)O (stereo partly drawn) [Compound 3.7a] | non-extracting |  | do not extract | 2 mM
CCCCCC(CCCCC)C(=O)N[C@@H](COCc1cn(CCO[C@@H]2OC(CO)[C@@H](O)C(O)C2O)nn1)C(=O)N[C@H](CCC(=O)O)C(=O)O (stereo partly drawn) [Compound 3.7i] | non-extracting |  | do not extract | 1 mM
O=C(O)CC[C@@H](NC(=O)[C@H](COCc1cn(CCO[C@@H]2OC(CO)[C@@H](O)C(O)C2O)nn1)NC(=O)CCCCC1CCCCC1)C(=O)O (stereo partly drawn) [Compound 3.7k] | non-extracting |  | do not extract | 1 mM
CCCCCCCCCC(=O)NC(CC(=O)O)C(=O)NC(CCC(=O)O)C(=O)O (stereo not drawn) [Compound 4.5a] (Decanoyl-Asp-Glu-OH; configuration not given here) | non-extracting |  | partially extract | 3 mM
CCCCCCCCCCCC(=O)NC(CC(=O)O)C(=O)NC(CCC(=O)O)C(=O)O (stereo not drawn) [Compound 4.5b] (Lauroyl-Asp-Glu-OH; configuration not given here) | partially extracting |  | extracting | 2 mM
CCCCCCCCCCCC(=O)NC(CC(=O)NC(CCC(=O)O)C(=O)O)C(=O)NC(CCC(=O)O)C(=O)O (stereo not drawn) [Compound 4.6b] (Lauroyl-Asp(Glu)-Glu-OH; configuration not given here) |  | not extract, or only very slightly extract, AcrB, unlike BmrA |  | 1 mM
CCCCCCCCCCCCCC(=O)NC(CC(=O)N[C@@H](CCC(=O)O)C(=O)O)C(=O)NC(CCC(=O)O)C(=O)O (stereo partly drawn) [Compound 4.6c] (Myristoyl-[ξD](Glu)-[ξE]-OH) |  |  | extracting | 1 mM
CCCCCCCCCCCCOP(=O)([O-])OCC[N+](C)(C)C [FC12, foscholine-12, reference compound] | effectively extracted |  | effectively extracted | 
CCCCCCCCCCCCOS(=O)(=O)[O-].[Na+] [SDS, sodium dodecyl sulfate, reference compound] | effectively extracted |  | effectively extracted | 
triton X-100 [TX100, reference compound] | solubilize |  | solubilize | 
